Laboratory results taken from paper PMC9584352, “Conserved Pib2 regions have distinct roles in TORC1 regulation at the vacuole” (Journal of Cell Science, 2022).

T1: Pib2 442–625 (Saccharomyces cerevisiae, UniProt P53191)
T1 construct: FYVE domain fragment, start of FYVE domain to beginning of tail motif, residues 442-625; purified; predominantly monomeric by SEC-MALS
T1 sequence (P53191 442-625): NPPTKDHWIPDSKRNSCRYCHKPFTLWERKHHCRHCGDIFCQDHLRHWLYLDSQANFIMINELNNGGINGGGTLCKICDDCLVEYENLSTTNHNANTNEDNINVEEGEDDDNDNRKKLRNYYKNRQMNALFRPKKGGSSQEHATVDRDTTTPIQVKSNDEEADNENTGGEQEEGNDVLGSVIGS

T2: EEA1 1347–1411 (Homo sapiens, UniProt Q15075)
T2 construct: purified; largely monomeric by SEC-MALS
T2 sequence (Q15075 1347-1411): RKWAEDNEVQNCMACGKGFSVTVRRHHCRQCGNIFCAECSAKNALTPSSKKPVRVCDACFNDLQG

T3: EEA1 1287–1411 (Homo sapiens, UniProt Q15075)
T3 construct: purified; largely dimeric by SEC-MALS
T3 sequence (Q15075 1287-1411): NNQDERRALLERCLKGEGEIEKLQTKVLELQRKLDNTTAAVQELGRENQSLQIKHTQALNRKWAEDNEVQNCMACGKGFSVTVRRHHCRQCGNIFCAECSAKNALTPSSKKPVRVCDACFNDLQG

T4: Pib2 419–625 (Saccharomyces cerevisiae, UniProt P53191)
T4 construct: FYVE domain fragment starting 23 residues before the FYVE core, residues 419-625; purified; predominantly monomeric by SEC-MALS
T4 sequence (P53191 419-625): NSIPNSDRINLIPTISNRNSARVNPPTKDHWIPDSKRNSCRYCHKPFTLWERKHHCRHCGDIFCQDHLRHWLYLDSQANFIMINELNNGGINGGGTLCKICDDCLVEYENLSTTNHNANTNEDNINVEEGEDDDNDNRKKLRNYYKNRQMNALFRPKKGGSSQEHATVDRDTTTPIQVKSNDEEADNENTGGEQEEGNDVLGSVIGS


Assays:
Pib2 442–625 = molecular target: T1, Pib2 442–625; experiment: ITC; assay type: binding
EEA1 1347–1411 = molecular target: T2, EEA1 1347–1411; experiment: ITC; assay type: binding
EEA1 1287–1411 = molecular target: T3, EEA1 1287–1411; experiment: ITC; assay type: binding
Pib2 419–625 = molecular target: T4, Pib2 419–625; experiment: ITC; assay type: binding
[1] = molecular target: the molecule itself; experiment: SEC-MALS; Superdex 75 10/300 in 20 mM Tris-HCl pH 7.4, 150 mM NaCl, 1.93 mM β-mercaptoethanol, room temperature; 500 µl of each protein loaded at 50 or 100 µM as indicated; detectors at 25°C

Row | Kd (Pib2 442–625) [µM] | Kd (EEA1 1347–1411) [µM] | Kd (EEA1 1287–1411) [µM] | Kd (Pib2 419–625) [µM] | Molecule | stoichiometry N [1]
1 | 736 |  |  |  | CCCC(=O)OC[C@H](COP(=O)(O)O[C@@H]1[C@H](O)[C@H](OP(=O)(O)O)[C@@H](O)[C@H](O)[C@H]1O)OC(=O)CCC [PI3P diC4] | 
2 | 212 | > 300 | ~95.8 | > 290 | O=P(O)(O)O[C@@H]1[C@H](O)[C@H](OP(=O)(O)O)[C@@H](O)[C@H](O)[C@H]1O [inositol 1,3-bisphosphate] | 
3 |  |  |  |  | EEA1 1287–1411 (domain or fragment, UniProt Q15075 1287-1411, looked up, also called longer EEA1 FYVE construct; source: purified) NNQDERRALLERCLKGEGEIEKLQTKVLELQRKLDNTTAAVQELGRENQSLQIKHTQALNRKWAEDNEVQNCMACGKGFSVTVRRHHCRQCGNIFCAECSAKNALTPSSKKPVRVCDACFNDLQG | 2
